The target of the test is T1, vitamin D receptor (VDR) (Homo sapiens, UniProt P11473).
T1 sequence (P11473 118-427 limits assumed): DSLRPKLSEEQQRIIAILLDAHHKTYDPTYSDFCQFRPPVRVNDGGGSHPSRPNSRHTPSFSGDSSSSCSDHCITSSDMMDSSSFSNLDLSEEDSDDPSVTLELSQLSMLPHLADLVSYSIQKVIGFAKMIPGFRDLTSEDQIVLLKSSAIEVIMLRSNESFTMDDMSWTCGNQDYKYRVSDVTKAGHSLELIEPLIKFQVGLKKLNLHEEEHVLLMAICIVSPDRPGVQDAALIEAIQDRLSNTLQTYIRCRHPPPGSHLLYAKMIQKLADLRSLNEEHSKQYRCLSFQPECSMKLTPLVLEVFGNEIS
Format: binding.

In turn, `C=C1CC[C@H](O)C/C1=C/C=C1\CCC[C@]2(C)[C@@H]([C@H](C)CC(=O)O)CC[C@@H]12` [compound 13, calcioic acid] registered an IC50 of 71.2 µM.

The IC50 is the concentration that inhibits the measured activity by half. Read a low IC50 as greater potency in that assay.

(Values after PMC6980330 (Steroids, 2019).)
